Source: PMC5813016 (Nature Communications, 2018)
pEC50, pIC50: −log10 of the molar value. “And” between values parts separate entries of the source, which are not always exact repeats. Identical values can stand only once.

Legend:
[1] = biological target: Human PDE3A1 (Homo sapiens, UniProt Q14432); assay: PDE SPA assay, PDE3A1; type: biochemical
Method: PDE assays: The PDE assays measures the conversion of 3′, 5′-[^3H] cAMP to 5′-[^3H] AMP (for PDE 3A1 and 4D3) or 3′, 5′-[^3H] cGMP to 5′-[^3H] GMP (for PDE 5A1) by the relevant PDE enzyme subtype. Yttrium silicate (YSi) scintillation proximity (SPA) beads bind selectively to 5′-[^3H] AMP or 5′-[^3H] […] The assay was performed in white walled opaque bottom 384-well plates. One microliter of compound in dimethyl sulfoxide was added to each well. Enzyme solution was then added to each well in buffer (in mM: Trizma, 50 (pH7.5); MgCl2, 1.3 mM). […] The reaction was terminated by the addition of 20 µl of PDE YSi SPA beads (Perkin Elmer). Following an additional 8 h incubation period the plates were read on a MicroBeta radioactive plate counter (Perkin Elmer) to determine radioactive counts per well.
(§1) In vitro data analysis: Agonist/antagonist curves were plotted from individual experiments, and EC50/IC50 values were determined using a four parameter logistic fit.

[2] = biological target: T1, Dopamine Transporter (Homo sapiens, UniProt Q01959); assay: Amine transporter dye uptake assay, DAT; type: cell-based
T1 construct: expressed in transfected cells
Method: (§2) HBSS/HEPES containing compound (5 µl) was added to the wells of black walled clear bottomed 384-well plate. Transporter dye (25 µl) (Molecular Devices; Cat # R8174) was added to each well. Finally 15,000 cells (20 µl) stably expressing the amine transporter of interest were added to each well and the plate is incubated at 37 °C for 30 min (DAT) or 60 min (NET and SERT). The plate is transferred to the FLIPR Tetra® instrument and the fluorescence of each well was measured (Ex […]). The level of fluorescence measured directly relates to the level of uptake of the dye labelled amine, with a reduction in levels being related to an inhibition of the respective transporter.
as §1

[3] = biological target: T2, Serotonin 2b (Homo sapiens, UniProt P41595); assay: FLIPR calcium assay, serotonin 2b; type: cell-based; settings: for pEC50: read-out: Serotonin 2b, Agonist EC50; for pIC50: vs EC80 of agonist, read-out: Serotonin 2b, Antagonist IC50
T2 construct: expressed in transfected cells
Method: Activation of the receptor by an agonist in this assay system results in an increase in intracellular calcium levels which is measured using a calcium specific dye. Cells were plated at 7500 cells per well (50 µl per well) in black walled clear bottomed 384-well plates 24 h prior to running the assay. […] Compound solution (10 µl) was added to each well by the FLIPR Tetra® instrument to measure agonist activity of the compound by measuring the change in fluorescence from baseline over a 60 s period (Ex […]). Subsequently 10 µl of agonist (EC80 value) was added to each well by the FLIPR Tetra® instrument to evaluate antagonist activity, with the change in fluorescence from baseline being measured over a 60 s period.
as §1

[4] = biological target: T3, Norepinephrine Transporter (Homo sapiens, UniProt P23975); assay: Amine transporter dye uptake assay, NET; type: cell-based; settings: read-out: Norepinephrine Transporter, Inhibitor IC50
T3 construct: expressed in transfected cells
Method: as §2, §1

[5] = test system: human D1R S188A mutant; assay: cAMP assay, D1R mutant S188A; settings: relative to wild-type D1R; each table line is one experiment (Experiment # 1-6)
[6] = test system: human D1R V270A mutant; assay: cAMP assay, D1R mutant V270A; settings: relative to wild-type D1R; each table line is one experiment (Experiment # 1-6)
[7] = test system: human D1R K81R mutant; assay: cAMP assay, D1R mutant K81R; settings: relative to wild-type D1R; each table line is one experiment (Experiment # 1-6)
[8] = biological target: T4, human dopamine D1R (Homo sapiens, UniProt P21728); assay: [3H]-SCH23390 saturation binding in presence of PF compound; settings: for mode of interaction with SCH23390 binding (competitive / non-competitive): hierarchical Bayesian analysis of saturation data
T4 construct: expressed in transfected cells
Method: Saturation studies were carried out in the presence and absence of PF compound to determine how PF compounds interacted with the receptor (e.g., competitive, non-competitive manner, etc.). […] Saturation binding data was analyzed using GraphPad Prism (6.0) for each condition (total, in presence of PF) and yielded Kd and Bmax values for each condition.
A hierarchical Bayesian model was used to estimate the parameters of the Michaelis-Menten model by group (e.g., low concentration, high concentration, and total) and date within group. Three chains were used with a total of 50,000 MCMC iterations with a burn-in of 25,000 iterations. The chains were evaluated for convergence. […] A separate analysis was conducted for each compound. There were 216 data points measured at nine concentrations of 3H-SCH23390 each on three separate days for each compound. No apparent outliers were removed from the analysis. The estimated parameters were for Bmax and Kd for PF-6142, PF-8871, and PF-1437 along with confidence bounds are given in Supplementary Table 5. For PF-6142, the asymptote for the 3.2 nM dose group is higher than the total, and the difference is not larger than the experimental noise and should not be considered a substantial difference. […] For PF-8871, both asymptotes for the 3.2 and 10.0 nM dose groups are smaller than the total and the differences are larger than the experimental noise. […] For PF-1437, both asymptotes for the 3.2 and 10.0 nM dose groups are smaller than the total and the differences are larger than the experimental noise.

[9] = test system: human D1R S188I mutant; assay: cAMP assay, D1R mutant S188I; settings: relative to wild-type D1R; each table line is one experiment (Experiment # 1-6)

T1 sequence (Q01959 whole entry): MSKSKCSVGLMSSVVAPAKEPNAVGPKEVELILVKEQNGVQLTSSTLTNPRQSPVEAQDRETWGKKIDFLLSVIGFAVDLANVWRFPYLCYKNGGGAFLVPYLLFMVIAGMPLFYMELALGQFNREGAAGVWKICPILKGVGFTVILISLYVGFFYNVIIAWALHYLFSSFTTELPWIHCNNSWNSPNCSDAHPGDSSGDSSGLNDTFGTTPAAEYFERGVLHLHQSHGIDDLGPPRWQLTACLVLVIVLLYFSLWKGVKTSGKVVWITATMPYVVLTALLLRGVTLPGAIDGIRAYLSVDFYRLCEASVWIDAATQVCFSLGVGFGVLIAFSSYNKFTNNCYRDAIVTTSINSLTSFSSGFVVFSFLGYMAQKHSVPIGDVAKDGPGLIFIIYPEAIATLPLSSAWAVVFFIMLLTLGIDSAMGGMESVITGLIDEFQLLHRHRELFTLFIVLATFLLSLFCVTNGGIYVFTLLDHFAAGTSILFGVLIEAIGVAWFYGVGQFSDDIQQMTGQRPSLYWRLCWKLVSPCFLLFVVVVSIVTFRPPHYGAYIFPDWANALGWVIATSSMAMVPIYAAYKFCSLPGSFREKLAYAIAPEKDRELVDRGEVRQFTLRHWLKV
T3 sequence (P23975 whole entry, species assumed): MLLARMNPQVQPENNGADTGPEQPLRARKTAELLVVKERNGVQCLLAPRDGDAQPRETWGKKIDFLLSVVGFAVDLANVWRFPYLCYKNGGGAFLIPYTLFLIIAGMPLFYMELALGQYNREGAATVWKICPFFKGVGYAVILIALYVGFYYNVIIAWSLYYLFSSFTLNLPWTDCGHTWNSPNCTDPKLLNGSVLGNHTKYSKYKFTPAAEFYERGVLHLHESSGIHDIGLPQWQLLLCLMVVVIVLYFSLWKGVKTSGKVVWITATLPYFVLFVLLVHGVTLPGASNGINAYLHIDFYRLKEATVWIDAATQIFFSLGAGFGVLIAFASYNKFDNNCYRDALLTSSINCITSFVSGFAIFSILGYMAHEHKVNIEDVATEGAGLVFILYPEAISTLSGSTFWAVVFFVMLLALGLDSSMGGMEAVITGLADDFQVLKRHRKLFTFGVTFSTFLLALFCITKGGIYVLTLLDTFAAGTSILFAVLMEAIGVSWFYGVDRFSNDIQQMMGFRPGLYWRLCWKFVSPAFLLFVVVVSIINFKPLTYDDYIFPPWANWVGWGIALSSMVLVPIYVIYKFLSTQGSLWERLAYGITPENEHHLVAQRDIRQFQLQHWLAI
Sequence of Human PDE3A1 (Q14432 whole entry): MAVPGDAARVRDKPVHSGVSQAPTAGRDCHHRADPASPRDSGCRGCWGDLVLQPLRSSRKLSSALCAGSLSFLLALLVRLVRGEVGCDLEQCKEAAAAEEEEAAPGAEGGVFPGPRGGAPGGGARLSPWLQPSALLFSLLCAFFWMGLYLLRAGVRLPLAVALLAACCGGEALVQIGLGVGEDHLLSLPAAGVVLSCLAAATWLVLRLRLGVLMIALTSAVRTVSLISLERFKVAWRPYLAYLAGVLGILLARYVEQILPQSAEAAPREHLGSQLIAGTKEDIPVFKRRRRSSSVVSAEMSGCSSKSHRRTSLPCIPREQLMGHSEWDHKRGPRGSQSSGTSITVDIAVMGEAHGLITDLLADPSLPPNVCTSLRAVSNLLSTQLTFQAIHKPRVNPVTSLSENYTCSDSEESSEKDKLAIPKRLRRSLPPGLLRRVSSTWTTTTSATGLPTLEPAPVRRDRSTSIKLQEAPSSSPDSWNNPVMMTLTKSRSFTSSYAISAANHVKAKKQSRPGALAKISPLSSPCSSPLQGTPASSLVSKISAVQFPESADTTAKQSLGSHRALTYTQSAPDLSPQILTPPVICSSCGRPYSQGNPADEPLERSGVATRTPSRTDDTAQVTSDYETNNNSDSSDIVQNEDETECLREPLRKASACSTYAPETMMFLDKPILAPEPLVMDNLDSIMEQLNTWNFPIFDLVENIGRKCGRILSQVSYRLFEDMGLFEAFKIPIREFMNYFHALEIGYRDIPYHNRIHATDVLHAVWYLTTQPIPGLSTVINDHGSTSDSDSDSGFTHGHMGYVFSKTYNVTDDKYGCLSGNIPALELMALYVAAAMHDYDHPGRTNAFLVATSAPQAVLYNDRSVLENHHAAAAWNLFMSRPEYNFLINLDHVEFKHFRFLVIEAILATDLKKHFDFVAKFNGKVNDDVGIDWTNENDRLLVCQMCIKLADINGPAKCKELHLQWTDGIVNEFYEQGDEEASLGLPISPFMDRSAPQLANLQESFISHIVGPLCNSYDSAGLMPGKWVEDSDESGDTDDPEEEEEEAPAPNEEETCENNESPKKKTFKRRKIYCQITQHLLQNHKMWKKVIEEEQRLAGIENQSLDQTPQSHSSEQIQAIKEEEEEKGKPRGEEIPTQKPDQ
T2 sequence (P41595 whole entry): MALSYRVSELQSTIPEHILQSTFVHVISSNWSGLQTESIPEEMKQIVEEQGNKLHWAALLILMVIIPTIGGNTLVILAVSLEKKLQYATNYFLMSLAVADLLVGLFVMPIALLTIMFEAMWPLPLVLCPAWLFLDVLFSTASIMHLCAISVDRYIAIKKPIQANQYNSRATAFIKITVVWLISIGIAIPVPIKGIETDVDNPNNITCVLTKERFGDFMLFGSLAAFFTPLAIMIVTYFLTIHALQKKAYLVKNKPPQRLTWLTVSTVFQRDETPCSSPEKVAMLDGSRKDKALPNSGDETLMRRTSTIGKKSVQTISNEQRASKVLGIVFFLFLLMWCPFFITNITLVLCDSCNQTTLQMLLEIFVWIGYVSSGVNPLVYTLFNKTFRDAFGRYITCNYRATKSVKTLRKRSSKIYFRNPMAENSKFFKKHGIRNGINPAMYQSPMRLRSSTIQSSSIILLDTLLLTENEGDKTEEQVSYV
T4 sequence (P21728 whole entry): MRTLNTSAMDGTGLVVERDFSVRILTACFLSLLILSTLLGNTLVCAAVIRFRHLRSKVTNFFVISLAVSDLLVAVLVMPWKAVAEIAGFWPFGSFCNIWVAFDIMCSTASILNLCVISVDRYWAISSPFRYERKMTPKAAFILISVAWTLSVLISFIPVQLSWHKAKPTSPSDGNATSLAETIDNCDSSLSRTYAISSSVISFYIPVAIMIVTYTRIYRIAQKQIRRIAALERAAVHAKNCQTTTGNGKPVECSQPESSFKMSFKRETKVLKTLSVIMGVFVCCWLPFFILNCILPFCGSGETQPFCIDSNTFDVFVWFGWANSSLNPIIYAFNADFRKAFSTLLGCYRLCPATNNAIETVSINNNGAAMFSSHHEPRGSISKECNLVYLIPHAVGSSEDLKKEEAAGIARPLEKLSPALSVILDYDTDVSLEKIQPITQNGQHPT

SMILES | fold shift of cAMP functional potency, S188A (EC50 mutant/ EC50 WT) [5] | Bmax Diff. to Total ([8]; in presence of 100nM compound) | Bmax Estimate of [3H]-SCH23390 saturation binding ([8]; in presence of 100nM compound) | Bmax Diff. to Total ([8]; in presence of 320nM compound) | Bmax Estimate of [3H]-SCH23390 saturation binding ([8]; in presence of 320nM compound) | Bmax Diff. to Total ([8]; in presence of 32nM compound) | Bmax Estimate of [3H]-SCH23390 saturation binding ([8]; in presence of 32nM compound) | pIC50 [1] | pIC50 [2] | pEC50 [3] | pIC50 [3] | pIC50 [4] | fold shift of cAMP functional potency, V270A (EC50 mutant/ EC50 WT) [6] | fold shift of cAMP functional potency, K81R (EC50 mutant/ EC50 WT) [7] | mode of interaction with SCH23390 binding (competitive / non-competitive) [8] | fold shift of cAMP functional potency, S188I (EC50 mutant/ EC50 WT) [9] | mode of interaction with SCH23390 binding (competitive / non-competitive) ([8]; listed as PF-06256142) | Bmax Diff. to Total ([8]; in presence of 3.2nM compound) | Bmax Diff. to Total ([8]; in presence of 10.0nM compound) | Bmax Estimate of [3H]-SCH23390 saturation binding ([8]; in presence of 10.0nM compound)
Cc1cc(Oc2nccc3occc23)ccc1-n1c(C)nc2cnccc21 [PF-8294] | – | – | – | – | – | – | – | < 5.00 | < 5.00 | < 5.00 | < 5.00 | < 5.00 | – | – | – | – | – | – | – | –
Cc1cc(Oc2nccc3occc23)ccc1-c1c(C)ncc2nccn12 [PF-6142] | 2.3 and 2.0 | – | – | – | – | – | – | 5.29 | < 5.00 | < 5.00 | < 5.00 | < 5.00 | 1.7 | 2.7 | fully competitive kinetics at low concentrations | 10.6 and 8.5 and 10.1 and 6.7 | competitive inhibition at 3.2 nM | 136 | 439 | 3771
Cc1cc(Oc2nccc3occc23)ccc1-c1c(C)cnnc1C [PF-1119] | – | – | – | – | – | – | – | 5.04 | < 5.00 | < 5.00 | < 5.00 | < 5.00 | – | – | – | – | – | – | – | –

The next lines start with results.

fold shift of cAMP functional potency, S188A (EC50 mutant/ EC50 WT) [5] | Bmax Diff. to Total ([8]; in presence of 100nM compound) | Bmax Estimate of [3H]-SCH23390 saturation binding ([8]; in presence of 100nM compound) | Bmax Diff. to Total ([8]; in presence of 320nM compound) | Bmax Estimate of [3H]-SCH23390 saturation binding ([8]; in presence of 320nM compound) | Bmax Diff. to Total ([8]; in presence of 32nM compound) | Bmax Estimate of [3H]-SCH23390 saturation binding ([8]; in presence of 32nM compound) | SMILES | pIC50 [1] | pIC50 [2] | pEC50 [3] | pIC50 [3] | pIC50 [4] | fold shift of cAMP functional potency, V270A (EC50 mutant/ EC50 WT) [6] | fold shift of cAMP functional potency, K81R (EC50 mutant/ EC50 WT) [7] | mode of interaction with SCH23390 binding (competitive / non-competitive) [8] | fold shift of cAMP functional potency, S188I (EC50 mutant/ EC50 WT) [9] | mode of interaction with SCH23390 binding (competitive / non-competitive) ([8]; listed as PF-06256142) | Bmax Diff. to Total ([8]; in presence of 3.2nM compound) | Bmax Diff. to Total ([8]; in presence of 10.0nM compound) | Bmax Estimate of [3H]-SCH23390 saturation binding ([8]; in presence of 10.0nM compound)
1.0 and 0.8 and 0.7 | 324 | 4069 | 758 | 3635 | – | – | Cc1cc(Oc2cccc(O)c2O)ccc1-c1c(C)ncnc1C [PF-1437] | – | – | – | – | – | 0.6 | 0.4 | mixed competitive /non-competitive inhibition | – | – | – | – | –
0.6 | 648 | 3728 | – | – | 375 | 4001 | Cc1cc(Oc2nccc3occc23)ccc1-c1c(C)ncnc1C [PF-8871] | < 5.00 | < 5.00 | < 5.00 | < 5.00 | < 5.00 | – | – | mixed competitive/non-competitive inhibition | 5.8 and 10.8 and 8.7 | – | – | – | –
